Test results from patent US20220184147A1, “BACTERIAL ENZYMATIC CONVERSION OF ANTHRACYCLINE CHEMOTHERAPEUTICS TO REDUCE TOXICITY AND PROMOTE DIVERSITY AMONG THE INTESTINAL MICROBIOTA” (Northwestem University, priority 2019, published 2022).

How the values were obtained:
Clostridium innocuum = test: Sensitivity of monoculture growth to Dox at various concentrations; assay type: cell-based; details: C. innocuum
From the text: (§1) The impacts of doxorubicin on a model community of gut bacteria was investigated in vitro in anaerobic batch culture. The synthetic community was composed of specific members predicted by genomic analysis to be sensitive to the therapeutic (i.e., Clostridium innocuum, Lactobacillus sp.), resistant via putative biotransformation (i.e., Escherichia coli, Klebsiella pneumoniae), or resistant via putative efflux (i.e., Enterococcus faecalis). Bacterial growth was monitored in monocultures by measuring OD600 and standard plate counts, and in mixed cultures by strain-targeted qPCR. Doxorubicin concentration was detected via absorbance assay.
(§2) The effects of Dox on gut-associated bacteria then were investigated in vitro in monoculture and in a synthetic community. […] Bacteria were identified and quantified after culture and treatment using qPCR.
(§3) (See FIGS. 4-8). […] (See FIGS. 4 and 5, respectively).
(§4) (See FIGS. 7 and 8, respectively).

Lactobacillus [1] = test: as above; assay type: cell-based, Lactobacillus spp.
From the text: as §1, §2, §3, §4

Enterococcus faecalis [2] = test: Sensitivity or resistance of monoculture growth to Dox; assay type: cell-based; details: E. faecalis
From the text: as §1, §2, §3

Escherichia coli [3] = test: as above; assay type: cell-based; details: E. coli
From the text: as §1, §2, §3

Klebsiella pneumoniae [4] = test: as above; assay type: cell-based; details: K. pneumoniae
From the text: as §1, §2, §3

Escherichia coli [5] = test: Bacterial transformation of Dox, spectrophotometric assay of Dox concentration in culture / spent media
From the text: (§5) A spectrophotometric assay to measure the concentration of active, unmodified, non-transformed doxorubicin was adopted.
(§6) A spectrophotometric assay to measure the concentration of doxorubicin was adopted. […] Our spectrophotometric assays measure the concentration of active, unmodified, non-transformed doxorubicin (Dox) via absorption at λ480 versus concentration of Dox μM.
(§7) We next tested the sensitivity or resistance of Escherichia coli, Klebsiella pneumonia, Enterococcus faecalis, Clostridium innocuum or Lactobacillus spp. to Dox at various concentrations. (See FIGS. 4-8). […] (See FIGS. 4 and 5, respectively).

Klebsiella pneumoniae [6] = test: as above
From the text: as §5, §6, §7

Enterococcus faecalis [7] = test: as above
From the text: as §5, §6

C. innocuum = test: Growth of Dox-sensitive strain in 50% spent media of resistant strains; assay type: cell-based, Clostridium innocuum
Protocol: (§8) We previously observed that a Dox concentration as low as 10 μM can inhibit the growth of C. innocuum and Lactobacillus. (See FIGS. 7 and 8, respectively).

Lactobacillus [8] = test: as above; assay type: cell-based, Lactobacillus spp.
Protocol: as §8

[9] = tested on: synthetic community of C. innocuum, E. coli, E. faecalis, and K. pneumoniae; test: Mixed-batch culture of synthetic community treated with Dox in second generation; assay type: cell-based; details: Dox 100 μM added in second generation
Protocol: We next performed a mixed-batch culture experiment. (See FIGS. 10A and 10B). We prepared a synthetic community by combining cultures of C. innocuum, E. coli, E. faecalis, and K. pneumoniae. We cultured the synthetic community and allowed community formation in a first generation. Subsequently, we added Dox at a concentration of 100 μM and monitored the growth of the members of the synthetic community after treatment/disturbance in a second generation. We then cultured the synthetic community though resiliency in a third generation.
(See FIGS. 10B, middle panel).

[10] = tested on: mixed-microbial communities of C. innocuum, Lactobacillus sp., E. faecalis, E. coli, and K. pneumoniae; test: Mixed-microbial communities C1-C5 in continuous anaerobic batch culture exposed to Dox in generation 2; assay type: cell-based
Protocol: FIG. 11A, FIG. 11B, FIG. 11C, FIG. 11D, and FIG. 11E. […] C1 began with even content of model strains of C innocuum^S, Lactobacillus^S sp., E. faecalisR, E. coli^R*, and K. pneumoniae^R*. C2 included less E. faecalis^R. C3 included less E. coli^R* . C4 included less K. pneumoniae^R*, and C5 included less E. coli^R* and K. pneumoniae^R*. The bacterial communities were grown in continuous batch culture and exposed to different concentrations Dox in generation 2.
The impacts of doxorubicin concentration and microbial community membership (and associated function) on the reduction of bioactive drug and associated microbial community resiliency were investigated in vitro in continuous anaerobic batch culture. Optical density measurements coupled with 16S rRNA gene amplicon sequencing analysis were used to estimate relative bacterial growth and a spectrophotometric assay was used to measure doxorubicin concentration. […] C1 began with even content of model strains of C. innocuum^S, Lactobacillus^S sp., E. faecalis^R, E. coli^R*, and K. pneumoniae^R*. C2 included less E. faecalis^R. C3 included less E. coli^R*. C4 included less K. pneumoniae^R*, and C5 included less E. coli^R* and K. pneumoniae^R*. The bacterial communities were grown in continuous batch culture and exposed to different concentrations Dox in generation 2.
C1, C2, and C3, may have been enhanced in communities with greater bacterial diversity. (See FIGS. 11A, 11B, and 11C, and compare C1 to C2 and C3, at least for the medium concentration). […] (See FIG. 11D, C4). […] (See FIG. 11E, C5). […] (See FIGS. 11A, 11B, and 11C, C1, C2, and C3, generation 3). […] Thus, microbial community membership (and associated function) impacted the rate of doxorubicin transformation, which, in turn, may confer protective effects on drug-sensitive members in gut-microbial communities.

K. pneumoniae = test: Modified resting cell assay with gentamicin; assay type: cell-based, Klebsiella pneumoniae; details: 10 or 50 μm gentamicin, anaerobic, 37° C., 24 h, controls
Protocol: FIG. 12A and FIG. 12B. Background gentamicin in culture media “fixes” K. pneumoniae to retain its biotransformation function despite thwarting cell growth. FIG. 12A: K. pneumoniae were first grown anaerobically at 37° C. in media in the presence of doxorubicin for 24 h (i.e., so initial biotransformation took place). Cultures were centrifugated into pellets, which were washed with buffer solution and resuspended in new media containing 100 μm doxorubicin and 0, 10, or 50 μm gentamicin. Inoculum was transferred to positive controls (i.e., with doxorubicin and same gentamicin treatment) and negative controls (i.e., contained doxorubicin, but no gentamicin). All samples were incubated anaerobically at 37° C. for 24 h and bacterial growth and final doxorubicin concentration (i.e., barplot) were determined. […] The two tubes on the far right are control growth media and doxorubicin-containing growth media (i.e., red color intensity corresponds to doxorubicin concentration in solution).
In a modified resting cell assay, we have shown that the biotransformation function can be harnessed without dependency on cell division. (See FIGS. 12A and 12B). Thus, it may be possible to “fix” K. pneumoniae in a form that enzymatically transforms Dox without presenting risk for in vivo colonization/growth. […]

[11] = spent media of E. coli and K. pneumoniae, Dox 4.1±2.5 μM and 4.4±0.9
[12] = spent media of E. faecalis, Dox 48.4±0.8 μM

Molecule: COc1cccc2c1C(=O)c1c(O)c3c(c(O)c1C2=O)C[C@@](O)(C(=O)CO)C[C@@H]3O[C@H]1C[C@H](N)[C@H](O)[C@H](C)O1 [Dox, doxorubicin]
- Growth after 25 hours (Clostridium innocuum; Dox 100 μM): did not observe any growth
- Dox concentration at which delayed growth was observed (Clostridium innocuum; monoculture): ≤ 10 µM
- Sensitivity to Dox (Clostridium innocuum; monoculture): highly sensitive
- Growth after 25 hours (Lactobacillus [1]; Dox 100 μM): did not observe any growth
- Dox concentration at which delayed growth was observed (Lactobacillus [1]; monoculture): ≤ 10 µM
- Sensitivity to Dox (Lactobacillus [1]; monoculture): highly sensitive
- Resistance to Dox (Enterococcus faecalis [2]): resistant to Dox
- Resistance to Dox (Escherichia coli [3]): resistant
- Resistance to Dox (Klebsiella pneumoniae [4]): resistant
- Change of Dox concentration in culture (Escherichia coli [5]; E. coli culture, absorption at λ480): reduced Dox concentration in culture
- Dox concentration in the 50% spent media (Escherichia coli [5]; E. coli grown with initial 250 μM Dox): 4.1 ± 2.5 µM
- Change of Dox concentration in culture (Klebsiella pneumoniae [6]; K. pneumoniae culture, absorption at λ480): reduced Dox concentration in culture
- Dox concentration in the 50% spent media (Klebsiella pneumoniae [6]; K. pneumoniae grown with initial 250 μM Dox): 4.4±0.9
- Change of Dox concentration in culture (Enterococcus faecalis [7]; E. faecalis culture, absorption at λ480): did not reduce the Dox concentration in culture
- Dox concentration in the 50% spent media (Enterococcus faecalis [7]; E. faecalis grown with initial 100 μM Dox): 48.4±0.8
- Growth in 50% spent media (C. innocuum; [11]): able to grow
- Growth in 50% spent media (C. innocuum; [12]): unable to grow
- Growth in 50% spent media (Lactobacillus [8]; [11]): able to grow
- Growth in 50% spent media (Lactobacillus [8]; [12]): unable to grow
- Growth of Dox-sensitive C. innocuum in synthetic community [9]: grew only following doxorubicin transformation
- Transformation of Dox by bacterial communities ([10]; communities containing E. coli and lacking K. pneumoniae (C4)): at a slower rate
- Transformation of doxorubicin by bacterial communities ([10]; communities containing E. coli or K. pneumoniae): rapid transformation
- Transformation of Dox by bacterial communities ([10]; communities without either K. pneumoniae or E. coli (C5)): not able to enzymatically transform Dox
- C. innocuum growth in mixed communities ([10]; generation 2, medium and high concentrations of doxorubicin): not detected in all cultures

Molecule: gentamicin
- Effect on K. pneumoniae growth (K. pneumoniae): stalled K. pneumoniae growth
